In patent US20040039047A1 (priority 1998, published 2004):

Key:
[1] = system: human epidennoid cells, virally infected with HSV-2
[2] = system: human epidennoid cells, virally infected with HSV-2; conditions: cited from earlier work
[3] = system: human epidennoid cells, virally infected with HSV-2; conditions: cited from earlier work; remark: listed apart in the source

CC(=O)OC[C@]12CCC(C)=C[C@H]1O[C@@H]1[C@H](O)[C@@H](OC(C)=O)[C@@]2(C)[C@]12CO2 [DAS]
Trichothecene in vitro concentration, Cytotoxic Hi [1]: 200 ng/mL
Trichothecene in vitro concentration, Cytotoxic Lo [1]: 6 ng/mL
Trichothecene in vitro concentration, Inhibitory 80% [2]: 4.0 ng/mL
Trichothecene in vitro concentration, Inhibitory 100% [2]: 5.0 ng/mL
cell viability [3]: Neither reduced cell viability
